In patent US20260297081A1, “COMPOUNDS AND METHODS OF TREATING CANCERS” (Cullgen Inc., priority 2023, published 2026) one finds inhibition, IC50 and activity data, which are given here for twelve compounds.

Some results are limits rather than exact numbers.

What all share (assay type): cell-based
Assay [1] deals with T1, CDK4 (Homo sapiens, UniProt P11802+Q16531). Nature of the assay: CDK4 percentage degradation in Calu-1 cells (Table 6). The note with it: 16 hours; for inhibition at 0.04 µM: 40 nM; for inhibition at 0.2 µM: 200 nM. Set-up: Cells that express cyclin D1-3 and CDK4/6 proteins were treated with heterobifunctional compounds; endogenous in cells; host or cells: Calu-1. Put shortly: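 Calu-1 cells exposed to heterobifunctional compounds at 40 nM or 200 nM for 16 h. Cyclin D1 and CDK4 levels measured by Western blot of RIPA lysates (BCA-normalised loading), bands quantified by densitometry and expressed as percentage degradation.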
Target sequence in this assay (P11802 2-303 limits assumed): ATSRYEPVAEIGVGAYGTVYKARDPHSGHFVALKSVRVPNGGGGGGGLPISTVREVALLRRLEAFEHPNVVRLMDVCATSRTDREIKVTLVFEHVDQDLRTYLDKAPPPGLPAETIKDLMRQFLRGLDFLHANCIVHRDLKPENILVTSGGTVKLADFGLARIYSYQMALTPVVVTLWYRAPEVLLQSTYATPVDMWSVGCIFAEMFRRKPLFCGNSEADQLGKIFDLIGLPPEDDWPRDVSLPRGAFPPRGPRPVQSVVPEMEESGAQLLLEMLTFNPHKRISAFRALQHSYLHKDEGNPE
Target sequence in this assay (P24385 whole entry partner): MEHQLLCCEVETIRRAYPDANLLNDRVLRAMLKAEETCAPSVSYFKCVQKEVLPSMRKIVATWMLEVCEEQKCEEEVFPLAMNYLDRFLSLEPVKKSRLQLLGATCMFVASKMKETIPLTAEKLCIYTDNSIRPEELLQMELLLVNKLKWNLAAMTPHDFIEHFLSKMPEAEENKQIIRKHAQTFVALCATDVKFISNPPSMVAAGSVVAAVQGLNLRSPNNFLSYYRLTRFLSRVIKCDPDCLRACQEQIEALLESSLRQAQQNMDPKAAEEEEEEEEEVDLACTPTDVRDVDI
Target sequence in this assay (Q16531 2-1140 limits assumed): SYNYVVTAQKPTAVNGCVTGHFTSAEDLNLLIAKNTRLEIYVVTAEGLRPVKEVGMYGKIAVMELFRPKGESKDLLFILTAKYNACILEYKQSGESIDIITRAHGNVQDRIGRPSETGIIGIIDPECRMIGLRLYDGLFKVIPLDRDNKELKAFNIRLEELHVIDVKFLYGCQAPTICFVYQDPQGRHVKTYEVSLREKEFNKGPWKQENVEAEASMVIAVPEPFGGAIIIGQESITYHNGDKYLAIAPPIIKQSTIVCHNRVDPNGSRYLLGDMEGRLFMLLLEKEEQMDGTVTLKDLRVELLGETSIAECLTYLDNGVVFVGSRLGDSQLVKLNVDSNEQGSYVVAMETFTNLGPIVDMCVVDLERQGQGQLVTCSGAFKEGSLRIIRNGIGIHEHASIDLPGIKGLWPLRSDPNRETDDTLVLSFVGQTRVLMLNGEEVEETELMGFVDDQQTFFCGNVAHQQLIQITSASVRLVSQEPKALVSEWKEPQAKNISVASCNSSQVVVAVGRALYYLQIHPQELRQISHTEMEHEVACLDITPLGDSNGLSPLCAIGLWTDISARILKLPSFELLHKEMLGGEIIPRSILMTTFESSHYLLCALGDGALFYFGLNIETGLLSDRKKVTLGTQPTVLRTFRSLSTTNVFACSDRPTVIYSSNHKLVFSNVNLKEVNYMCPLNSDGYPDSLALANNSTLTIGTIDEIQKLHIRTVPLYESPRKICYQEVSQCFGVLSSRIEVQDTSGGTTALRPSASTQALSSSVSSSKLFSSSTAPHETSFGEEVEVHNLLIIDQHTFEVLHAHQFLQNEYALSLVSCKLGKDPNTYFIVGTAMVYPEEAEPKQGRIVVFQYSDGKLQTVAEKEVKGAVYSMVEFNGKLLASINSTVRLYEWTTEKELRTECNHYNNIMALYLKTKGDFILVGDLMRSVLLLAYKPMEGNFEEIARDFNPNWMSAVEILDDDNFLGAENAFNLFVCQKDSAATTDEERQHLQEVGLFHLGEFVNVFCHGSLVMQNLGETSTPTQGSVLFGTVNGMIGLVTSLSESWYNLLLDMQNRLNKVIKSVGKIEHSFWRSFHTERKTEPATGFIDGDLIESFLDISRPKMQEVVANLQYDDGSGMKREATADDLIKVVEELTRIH

For another assay, the system named is MCF7 cells. Nature of the assay: Anti-proliferation (viability) of MCF7 cells (Table 7, FIG. 2B). Conditions: Homo sapiens, MCF7, MCF7 cells, 3-6 days, 10-point serial dilution; read-out: GI IC50 in MCF-7.
The next assay deals with Calu-1 cells. Put plainly: Anti-proliferation (viability) of NSCLC Calu-1 cells, 3 days (Table 7, FIG. 2B). Conditions: Homo sapiens, 72 h; Calu-1 cells, 3 days, 10-point serial dilution; read-out: GI IC50 in Calu-1. Put shortly:
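Viability after a 10-point dilution series of heterobifunctional compounds, with exposure of 6 days for ER+ breast T47D cells and 3 days for NSCLC Calu-1 cells.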

For assay [2], the target named is T1, CDK4. Put plainly: HiBiT detection of HiBiT-tagged CDK4 protein level in MCF7 cells, 16 hours (Table 8). More on the design: expressed in transfected cells; host or cells: MCF7. The note with it: MCF7 cells stably expressing HiBiT tagged target proteins; for activity at 0.01 µM: 10 nM, read-out: % CDK4 Relative Level (10 nM); for activity at 0.1 µM: 100 nM, read-out: % CDK4 Relative Level (100 nM). On the procedure:
HiBiT detection system quantitatively measures total amounts of HiBiT-tagged proteins using a luminescent based method. MCF7 cells stably expressing HiBiT tagged target proteins were treated with heterobifunctional compounds at indicated concentrations for 16 hours, then lysed with Nano-Glo HiBiT Lytic detection reagents.
Target sequence in this assay (P11802 whole entry): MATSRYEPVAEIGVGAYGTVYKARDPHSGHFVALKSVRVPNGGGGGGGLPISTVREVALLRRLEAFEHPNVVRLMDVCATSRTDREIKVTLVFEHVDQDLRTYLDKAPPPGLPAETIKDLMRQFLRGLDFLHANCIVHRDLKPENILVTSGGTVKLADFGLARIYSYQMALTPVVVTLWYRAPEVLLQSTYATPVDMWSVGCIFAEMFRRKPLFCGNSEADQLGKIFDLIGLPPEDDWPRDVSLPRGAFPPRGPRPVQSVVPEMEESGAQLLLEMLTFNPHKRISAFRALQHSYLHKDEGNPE
Target sequence in this assay (P24385 whole entry partner): as the sequence (P24385 whole entry partner) above
Target sequence in this assay (Q16531 2-1140 limits assumed): as the sequence (Q16531 2-1140 limits assumed) above
For orientation: The HiBiT peptide binds its large partner to form an active luciferase.

Compound `CNc1ccc(C(=O)Nc2cccc(C3CC3)n2)c(NC2CC3(C2)CN(C(=O)C2(CN4CCN(c5ccc(Nc6ncc7c(C)c(C(C)=O)c(=O)n(C8CCCC8)c7n6)nc5)CC4)CC2)C3)n1` [CPD-173, 2-((2-(1-((4-(6-((6-acetyl-8-cyclopentyl-5-methyl-7-oxo-7,8-dihydropyrido[2,3-d]pyrimidin-2-yl)amino)pyridin-3-yl)piperazin-1-yl)methyl)cyclopropane-1-carbonyl)-2-azaspiro[3.3]heptan-6-yl)amino)-N-(6-cyclopropylpyridin-2-yl)-6-(methylamino)nicotinamide] had an inhibition at 0.04 µM against CDK4 [1] greater than 80%. For the same compound, at CDK4 [1], the inhibition at 0.2 µM is greater than 80%. For the same compound, the IC50 is less than 0.05 µM in the assay on MCF7 cells and no more than 0.01 µM in the assay on Calu-1 cells.

On CDK4 [1], `CNc1ccc(C(=O)Nc2ccc(N(C)C)nn2)c(NC2CC3(CC(NC(=O)C(C)(C)N4CCN(c5ccc(Nc6ncc7c(C)c(C(C)=O)c(=O)n(C8CCCC8)c7n6)nc5)CC4)C3)C2)n1` (stereo not drawn) [CPD-174, 2-((6-(2-(4-(6-((6-acetyl-8-cyclopentyl-5-methyl-7-oxo-7,8-dihydropyrido[2,3-d]pyrimidin-2-yl)amino)pyridin-3-yl)piperazin-1-yl)-2-methylpropanamido)spiro[3.3]heptan-2-yl)amino)-N-(6-(dimethylamino)pyridazin-3-yl)-6-(methylamino)nicotinamide] had an inhibition at 0.04 µM of 50 to 80% and an inhibition at 0.2 µM greater than 80%. For the same compound, the half-maximal inhibitory concentration (IC50) with MCF7 cells was greater than 0.1 µM. Also, the IC50 in the assay on Calu-1 cells fell in the range of 0.01 to 0.05 µM.

Regarding `CNc1ccc(C(=O)Nc2ccc(N(C)C)nn2)c(NC2CC(OCCC(=O)N3CCN(c4ccc(Nc5ncc6c(C)c(C(C)=O)c(=O)n(C7CCCC7)c6n5)nc4)CC3)C2)n1` (stereo not drawn) [CPD-178, 2-((3-(3-(4-(6-((6-acetyl-8-cyclopentyl-5-methyl-7-oxo-7,8-dihydropyrido[2,3-d]pyrimidin-2-yl)amino)pyridin-3-yl)piperazin-1-yl)-3-oxopropoxy)cyclobutyl)amino)-N-(6-(dimethylamino)pyridazin-3-yl)-6-(methylamino)nicotinamide], at CDK4 [1], the inhibition at 0.04 µM lay in the range of 50 to 80% and the inhibition at 0.2 µM was in the range of 50 to 80%. Moreover, in the assay with MCF7 cells, the IC50 lay within 0.05 to 0.1 µM. Also, the IC50 in the assay with Calu-1 cells is no more than 0.01 µM.

On CDK4 [1], `CNc1ccc(C(=O)Nc2ccc(N(C)C)nn2)c(NC2CN(C(=O)CCN3CCN(c4ccc(Nc5ncc6c(C)c(C(C)=O)c(=O)n(C7CCCC7)c6n5)nc4)CC3)C2)n1` [CPD-186, 2-((1-(3-(4-(6-((6-acetyl-8-cyclopentyl-5-methyl-7-oxo-7,8-dihydropyrido[2,3-d]pyrimidin-2-yl)amino)pyridin-3-yl)piperazin-1-yl)propanoyl)azetidin-3-yl)amino)-N-(6-(dimethylamino)pyridazin-3-yl)-6-(methylamino)nicotinamide] had an inhibition at 0.04 µM of 50 to 80% and an inhibition at 0.2 µM of 50 to 80%. Further, in the assay with MCF7 cells, the IC50 was greater than 0.1 µM. For the same compound, the IC50 with Calu-1 cells was in the range of 0.01 to 0.05 µM.

On CDK4 [1], `CNc1ccc(C(=O)Nc2ccc(N(C)C)nn2)c(NC2CC3(C2)CC(OC(C)C(=O)N2CCN(c4ccc(Nc5ncc6c(C)c(C(C)=O)c(=O)n(C7CCCC7)c6n5)nc4)CC2)C3)n1` (stereo not drawn) [CPD-189, 2-((6-((1-(4-(6-((6-acetyl-8-cyclopentyl-5-methyl-7-oxo-7,8-dihydropyrido[2,3-d]pyrimidin-2-yl)amino)pyridin-3-yl)piperazin-1-yl)-1-oxopropan-2-yl)oxy)spiro[3.3]heptan-2-yl)amino)-N-(6-(dimethylamino)pyridazin-3-yl)-6-(methylamino)nicotinamide] yielded an inhibition at 0.04 µM of 50 to 80% and an inhibition at 0.2 µM of 50 to 80%. Further, in the assay on MCF7 cells, the IC50 is greater than 0.1 µM. The IC50 with Calu-1 cells lay in the range of 0.01 to 0.05 µM.

As to `CC(=O)c1c(C)c2cnc(Nc3ccc(N4CCN(CC(=O)NC5CC6(C5)CC(Nc5nc(NC(C)C)ccc5C(=O)Nc5cccc(C)n5)C6)CC4)cn3)nc2n(C2CCCC2)c1=O` (stereo not drawn) [CPD-190, 2-((6-(2-(4-(6-((6-acetyl-8-cyclopentyl-5-methyl-7-oxo-7,8-dihydropyrido[2,3-d]pyrimidin-2-yl)amino)pyridin-3-yl)piperazin-1-yl)acetamido)spiro[3.3]heptan-2-yl)amino)-6-(isopropylamino)-N-(6-methylpyridin-2-yl)nicotinamide], the inhibition at 0.04 µM against CDK4 [1] fell in the range of 50 to 80%. The same compound returned an inhibition at 0.2 µM at CDK4 [1] of 50 to 80%. For the same compound, the IC50 was 0.05 to 0.1 µM with MCF7 cells and no more than 0.01 µM in the assay on Calu-1 cells.

With `CC(=O)c1c(C)c2cnc(Nc3ccc(N4CCN(CC(=O)NC5CC6(C5)CC(Nc5nc(NC(C)C)ccc5C(=O)Nc5cc(C)on5)C6)CC4)cn3)nc2n(C2CCCC2)c1=O` (stereo not drawn) [CPD-199, 2-((6-(2-(4-(6-((6-acetyl-8-cyclopentyl-5-methyl-7-oxo-7,8-dihydropyrido[2,3-d]pyrimidin-2-yl)amino)pyridin-3-yl)piperazin-1-yl)acetamido)spiro[3.3]heptan-2-yl)amino)-6-(isopropylamino)-N-(5-methylisoxazol-3-yl)nicotinamide], on CDK4 [1], the inhibition at 0.04 µM lay in the range of 50 to 80% and the inhibition at 0.2 µM is 50 to 80%. Further, the IC50 in the assay on MCF7 cells was in the range of 0.05 to 0.1 µM. Also, the IC50 in the assay with Calu-1 cells is no more than 0.01 µM.

For `CNc1ccc(C(=O)Nc2ccc(N(C)C)nn2)c(NC2CCN(C(=O)CN3CCN(c4ccc(Nc5ncc6c(C)c(C(C)=O)c(=O)n(C7CCCC7)c6n5)nc4)CC3)CC2)n1` [CPD-200, 2-((1-(2-(4-(6-((6-acetyl-8-cyclopentyl-5-methyl-7-oxo-7,8-dihydropyrido[2,3-d]pyrimidin-2-yl)amino)pyridin-3-yl)piperazin-1-yl)acetyl)piperidin-4-yl)amino)-N-(6-(dimethylamino)pyridazin-3-yl)-6-(methylamino)nicotinamide], at CDK4 [1], the inhibition at 0.04 µM fell in the range of 50 to 80% and the inhibition at 0.2 µM was in the range of 50 to 80%. For the same compound, the IC50 with MCF7 cells lay within 0.05 to 0.1 µM. Moreover, the IC50 with Calu-1 cells was no more than 0.01 µM.

The compound `[2H]C([2H])([2H])Nc1ccc(C(=O)Nc2cc(C)n(C)n2)c(NC2CC(CNC(=O)CN3CCN(c4ccc(Nc5ncc6c(C)c(C(C)=O)c(=O)n(C7CCCC7)c6n5)nc4)CC3)C2)n1` (stereo not drawn) [CPD-206, 2-((3-((2-(4-(6-((6-acetyl-8-cyclopentyl-5-methyl-7-oxo-7,8-dihydropyrido[2,3-d]pyrimidin-2-yl)amino)pyridin-3-yl)piperazin-1-yl)acetamido)methyl)cyclobutyl)amino)-N-(1,5-dimethyl-1H-pyrazol-3-yl)-6-((methyl-d3)amino)nicotinamide] yielded an inhibition at 0.04 µM against CDK4 [1] of 50 to 80%. The compound also had an inhibition at 0.2 µM at CDK4 [1] of 50 to 80%. Besides, the IC50 was greater than 0.1 µM in the assay on MCF7 cells and no more than 0.01 µM in the assay on Calu-1 cells.

On CDK4 [1], `CNc1ccc(C(=O)Nc2ccc(N(C)C)nn2)c(NC2CC3(C2)CN(C(=O)C(F)(F)CN2CCN(c4ccc(Nc5ncc6c(C)c(C(C)=O)c(=O)n(C7CCCC7)c6n5)nc4)CC2)C3)n1` [CPD-208, 2-((2-(3-(4-(6-((6-acetyl-8-cyclopentyl-5-methyl-7-oxo-7,8-dihydropyrido[2,3-d]pyrimidin-2-yl)amino)pyridin-3-yl)piperazin-1-yl)-2,2-difluoropropanoyl)-2-azaspiro[3.3]heptan-6-yl)amino)-N-(6-(dimethylamino)pyridazin-3-yl)-6-(methylamino)nicotinamide] came in with an inhibition at 0.04 µM of 50 to 80% and an inhibition at 0.2 µM greater than 80%. Further, in the assay with MCF7 cells, the 50% inhibitory concentration (IC50) is less than 0.05 µM. Also, in the assay with Calu-1 cells, the IC50 is no more than 0.01 µM.

`[2H]C([2H])([2H])Nc1ccc(C(=O)Nc2ccc(N(C)C)nn2)c(NC2CC3(C2)CN(C(=O)C(C)N2CCN(Cc4ccc(Nc5ncc6c(C)c(C(C)=O)c(=O)n(C7CCCC7)c6n5)nc4)CC2)C3)n1` (stereo not drawn) [CPD-456, 2-((2-(2-(4-((6-((6-acetyl-8-cyclopentyl-5-methyl-7-oxo-7,8-dihydropyrido[2,3-d]pyrimidin-2-yl)amino)pyridin-3-yl)methyl)piperazin-1-yl)propanoyl)-2-azaspiro[3.3]heptan-6-yl)amino)-N-(6-(dimethylamino)pyridazin-3-yl)-6-((methyl-d3)amino)nicotinamide]: the half-maximal inhibitory concentration (IC50) in the assay on MCF7 cells is less than 0.05 µM. On CDK4 [2], the activity at 0.01 µM lay within 55 to 85% and the activity at 0.1 µM is 55 to 85%. Also, the IC50 in the assay on Calu-1 cells is no more than 0.01 µM.

Regarding `CC(=O)c1c(C)c2cnc(Nc3ccc(N4CCN(C5CCN(C(=O)N6CCC(Nc7nc(NC(C)C)ccc7C(=O)Nc7ccc(N(C)C)nn7)CC6)C5)CC4)cn3)nc2n(C2CCCC2)c1=O` (stereo not drawn) [CPD-469, 2-((1-(3-(4-(6-((6-acetyl-8-cyclopentyl-5-methyl-7-oxo-7,8-dihydropyrido[2,3-d]pyrimidin-2-yl)amino)pyridin-3-yl)piperazin-1-yl)pyrrolidine-1-carbonyl)piperidin-4-yl)amino)-N-(6-(dimethylamino)pyridazin-3-yl)-6-(isopropylamino)nicotinamide], the concentration for half-maximal inhibition (IC50) with MCF7 cells was less than 0.05 µM. Also, at CDK4 [2], the activity at 0.01 µM was no more than 55% and the activity at 0.1 µM was no more than 55%. Also, in the assay on Calu-1 cells, the IC50 is no more than 0.01 µM.

A word on the inhibition: it is the relative decrease from the control value, in per cent. Higher therefore signals a response far below the control. The IC50 is the midpoint of a concentration-inhibition curve.
